Read-outs that look alike come from different tables or passages of the source.
Columns and labels:
[1] = Hepatocyte stability assay; assay type: in vitro ADME; settings: cryopreserved human hepatocytes (10 donor pool, suspension), scaled hepatic clearance, read-out: HHep Clearance
Procedure: Metabolic stability of compounds are assessed using a hepatocyte stability assay. Cryopreserved human hepatocytes from a 10 donor pool are quickly thawed at 37° C., suspended in prewarmed In VitroGRO™ HT Medium, and then centrifuged at 100×g at room temperature for 10 min. The supernatants are discarded, and cells are resuspended in 5 mL Dulbecco's Modified Eagle Medium (DMEM) medium. Cell viability in suspension is counted on a Hepatometer® Vision (Lonza, N.C.), and viable cells are then adjusted to […] in DMEM. Compounds are first diluted to 2 μM with DMEM medium, and then aliquots of 125 μL of drug-containing medium are transferred to 96-well non-coated plates. Incubation is initiated by the addition of 125 μL of hepatocyte suspension to yield a total incubation volume of 250 μL. Final concentration of each compound is 1 μM, and final cell density is 0.5×10^6 cells/mL. Incubations are conducted in a humidified incubator at 37° C. Aliquots of 50 μL incubation medium are taken out at different time intervals (0, 60, 120 and 180 min), and immediately mixed with 100 μL of ice-cold acetonitrile containing 50 nM propranolol (internal standard). Samples are then centrifuged at 10,000×g for 10 min, and 80 μL of supernatant is taken out and diluted with 160 μL of water prior to LC/MS-MS analysis.
Human hepatocyte stability was assessed for exemplary compounds of Formula (I) according to the above procedures.

[2] = Permeability assay in gMDCKI cells; assay type: in vitro ADME, canine; settings: dog, MDCK, apical-to-basolateral, 2-hour incubation, read-out: MDCK AB Papp
Procedure: Cell permeability of compounds of interest was assessed in the gMDCKI cell line, which is a modified MDCKI (Madin-Darby canine kidney) originally acquired from American Type Culture Collection (Manassa, Va.) and generated at Genentech. […] Test article was tested at 10 μM in the apical-to-basolateral (A-B) and basolateral-to-apical (B-A) directions. Test compound was dissolved in transport buffer consisting of Hank's balanced salt solution and […] (Invitrogen Corporation, Grand Island, N.Y.). Transepithelial electrical resistance (TEER) and lucifer yellow (LY) permeability were used to monitor monolayer integrity at the beginning and the end of the experiments, respectively. Test articles were analyzed by LC-MS/MS.
The efflux ratio (ER) is calculated as (Papp, B−A/Papp, A−B).
Cell permeability were assessed for exemplary compounds of Formula (I).

[3] = Pharmacokinetic study in rat; assay type: in vivo, Sprague Dawley rat; settings: male, Sprague Dawley, plasma
Procedure: Pharmacokinetic Study in Rat: Male Sprague Dawley rats obtained from Lingchang/Vital River Laboratory Animal Technology Co., Ltd., (Shanghai/Beijing, P.R. China) with body weight ranging between 200 g to 300 g were use in the PK studies. Group of 3 rats were given a 1 mg/kg intravenous bolus (IV) dose of the test article in solution formulation, and another group of 3 rats were given a 2 or 5 mg/kg oral (PO) dose of test article as a 0.5% methylcellulose with 0.2% Tween 80 (MCT) suspension or as a solution. Blood samples (250 μL, per time point) were collected serially via the catheter in femoral artery at 0.033, 0.083, 0.25, 0.5, 1, 2, 4, 6, and 8 hours after IV or PO administration from each of the rat. Blood samples were collected into pre-chilled tubes containing Potassium (K2) EDTA and centrifuged at 3,200 g for 10 minutes at 2 to 8° C. within 1 hour of collection to harvest plasma. Plasma samples were stored at −70° C. until LC/MS/MS analysis. Concentration in each plasma sample was determined by a non-validated LC/MS/MS. Data is acquired using multiple reaction monitoring (MRM) with specific transitions monitored for each compound.
Following PO administration, percent bioavailability (% F) was determined for each animal by dividing the dose normalized area under the plasma concentration-time curve, extrapolated to infinity (AUCinf) obtained following each PO dose by the mean dose normalized AUCinf of the animals dosed by IV injection. All PK parameters are presented as mean±standard deviation (SD).
Pharmacokinetic studies were conducted in rat for exemplary compounds of Formula (I).

[4] = test system: phosphorylation of SLP-76 (S376) by HPK-1 in human Jurkat cells; assay: pSLP76 assay (sandwich ELISA, anti-CD3 stimulated Jurkat cells); assay type: cell-based; settings: Homo sapiens, read-out: pSLP76 IC50
Procedure: Phospho-SLP76 (S376) is detected by sandwich ELISA using an anti-pSLP76(S376) capture antibody and a biotinylated anti-SLP76 detection antibody.
Incubate Jurkat cells with varying concentrations of test compounds for 30 minutes in a humidified incubator at 37° C. and 5% CO2. Add anti-CD3 DynaBeads at a 4:1 bead:cell ratio. Stimulate cells in a humidified incubator at 37° C. and 5% CO2 for 10 minutes. Add cold lysis buffer and incubate on a shaker at 4° C. for 30 minutes. Transfer cell lysates to a pre-blocked ELISA plate coated with capture antibody. Incubate at room temperature shaking for 2 hours. Wash ELISA plate 5× with wash buffer and add 25 μl of biotinylated detection antibody at a final concentration of 0.5 μg/ml. Incubate at room temperature shaking for 1 hour. Wash ELISA plate 5× with wash buffer and add 25 μl of streptavidin enzyme conjugate at a final dilution of 1:8000. Incubate at room temperature shaking for 20 minutes. Wash ELISA plate 5× with wash buffer and add 25 μl of TMB substrate solution. Incubate at room temperature in the dark shaking for 20 minutes. Add 25 μl of STOP solution and read on SoftMax Pro for absorbance at 450 nm.
Exemplary compounds of Formula (I) were tested in pSLP76 assays.

[5] = target: HPK full length, T165E S171E (Homo sapiens (Human), UniProt Q92918, S171E/T165E); assay: HPK1-FL HTRF enzymatic assay ("HTRF"); assay type: biochemical; settings: ATP 1 mM
Outline: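 Full-length HPK1 (T165E/S171E) was preincubated 30 min with compound, then reacted 60 min with biotin-SLP-76 and 1 mM ATP. Phospho-SLP-76 was detected by HTRF (Eu-anti-pSLP76 antibody, SA-XL665) after a further 60 min.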

[6] = test system: primary human pan T cells; assay: Human T-cell IL2 induction assay; assay type: cell-based
Procedure: Assay Principle: Anti-CD3 and anti-CD28 activates TCR signaling in primary human pan T cells leading to IL-2 promoter induction. Secreted IL-2 in cell culture supernatant is detected by electrochemiluminescence using a capture antibody against IL-2 and an anti-IL-2 antibody labeled with SULFO-tag. Also see www.mesoscale.com for additional electrochemiluminescence technology information.
Assay Procedure: Incubate primary human pan T cells with varying concentrations of test compounds for 30 minutes in a humidified incubator at 37° C. and 5% CO2. Transfer cells to a plate pre-coated with a fixed concentration of anti-human CD3 (determined separately for each donor lot) and add soluble anti-human CD28 (final concentration=1 μg/ml). Stimulate cells in a humidified incubator at 37° C. and 5% CO2 for 4 hours. Transfer 25 μl of supernatant to a MSD single spot plate pre-coated with an anti-human IL-2 antibody. Incubate MSD plate overnight at 4° C. with gentle shaking. Wash MSD plate 4× with wash buffer. Add SULFO-tagged detection antibody at a 1:50 dilution and incubate at room temperature shaking for 2 hours. Wash MSD plate 4× with wash buffer and add 150 μl 2×MSD read buffer. Read on an MSD instrument. Normalize data to stimulated/untreated controls to calculate % activity at each concentration of compound.
Instrumentation: • Biomek FX for liquid handling (Beckman Coulter) • MSD SECTOR S 600 (Meso Scale Discovery)
Exemplary compounds of Formula (I) were tested in the human T-cell IL-2 induction assays.

[7] = Jurkat cells, anti-CD3 stimulation
[8] = PO 5 mg/kg, 10% DMSO/60% PEG400/30% Water, Solution

Chain of HPK full length, T165E S171E (Q92918 whole entry T165E/S171E, looked up): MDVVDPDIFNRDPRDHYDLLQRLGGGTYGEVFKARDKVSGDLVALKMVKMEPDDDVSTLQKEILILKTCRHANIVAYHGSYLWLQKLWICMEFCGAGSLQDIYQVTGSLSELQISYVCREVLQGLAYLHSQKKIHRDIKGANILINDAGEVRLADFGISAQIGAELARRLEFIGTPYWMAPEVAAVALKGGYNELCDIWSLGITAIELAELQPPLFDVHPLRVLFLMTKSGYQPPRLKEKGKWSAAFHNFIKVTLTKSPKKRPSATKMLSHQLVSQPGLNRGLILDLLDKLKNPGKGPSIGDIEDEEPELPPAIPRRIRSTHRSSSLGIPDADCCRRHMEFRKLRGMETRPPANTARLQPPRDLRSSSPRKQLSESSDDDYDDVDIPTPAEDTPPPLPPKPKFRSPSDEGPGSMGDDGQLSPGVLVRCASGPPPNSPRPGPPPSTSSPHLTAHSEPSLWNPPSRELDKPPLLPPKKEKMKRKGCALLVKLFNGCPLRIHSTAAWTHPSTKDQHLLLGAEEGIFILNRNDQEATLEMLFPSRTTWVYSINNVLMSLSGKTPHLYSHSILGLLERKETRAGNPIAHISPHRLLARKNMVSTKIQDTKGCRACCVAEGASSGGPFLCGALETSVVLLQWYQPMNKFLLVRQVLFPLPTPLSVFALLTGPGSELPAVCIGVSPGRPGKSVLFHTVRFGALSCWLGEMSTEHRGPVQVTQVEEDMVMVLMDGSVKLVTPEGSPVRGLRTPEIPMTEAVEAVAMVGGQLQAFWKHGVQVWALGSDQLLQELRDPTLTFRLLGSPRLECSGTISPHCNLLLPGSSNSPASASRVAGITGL

Row | Structure (SMILES) | CLhep predicted at 1 μM [1] | Papp at 2 h, 10 μM [2] | bioavailability ([3]; PO 5 mg/kg, 10/90 DMSO/MCT, Suspension) | IC50 [4, 7] | Ki ([5]; HPK1 Ki) | % IL-2 increase relative to untreated cells ([6]; assayed concentration 2.778 μM) | bioavailability [3, 8] | Ki ([5]; read-out: HPK1 Ki) | % IL-2 increase relative to untreated cells ([6]; assayed concentration 8.33 μM) | bioavailability ([3]; PO 5 mg/kg, 10% DMSO/35% PEG400/55% Water, Solution) | bioavailability ([3]; PO 2 mg/kg, 10/90 DMSO/MCT, Solution) | bioavailability ([3]; PO 2 mg/kg, MCT, Suspension) | IC50 ([4]; Jurkat) | bioavailability ([3]; PO 5 mg/kg, MCT, pH = 2.5, Suspension) | bioavailability ([3]; PO 2 mg/kg, 10% DMSO/60% PEG400/30% Water, Solution) | bioavailability ([3]; PO 5 mg/kg, MCT, Suspension)
1 | Cc1c(-c2cc3cc(NC(=O)O[C@@H]4CCOC4)ncc3c(N)c2F)cnc2c1NCCO2 [Compound 403a, (R)-Tetrahydrofuran-3-yl (8-amino-7-fluoro-6-(8-methyl-2,3-dihydro-1H-pyrido[2,3-b][1,4]oxazin-7-yl)isoquinolin-3-yl)carbamate] | 7.7 mL/min/kg | 10 ×10⁻⁶ cm/s | 4% | 48 nM | < 0.013 nM | – | – | – | – | – | – | – | – | – | – | –
2 | Cc1c(-c2cc3cc(NC(=O)O[C@H]4C[C@H](C#N)C4)ncc3c(N)c2F)cnc2c1NCCO2 [Compound 484b, (1r,3r)-(3-Cyanocyclobutyl) N-[8-amino-7-fluoro-6-(8-methyl-2,3-dihydro-1H-pyrido[2,3-b][1,4]oxazin-7-yl)-3-isoquinolyl]carbamate] | 7.9 mL/min/kg | 19 ×10⁻⁶ cm/s | – | 26 nM | – | 1782% | 16% | 0.015 nM | – | – | – | – | – | – | – | –
3 | CO[C@H]1COC[C@@H]1OC(=O)Nc1cc2cc(-c3cnc4c(c3C)NCCO4)c(F)c(N)c2cn1 (single isomer, unassigned) [Compound 546a] | 6.5 mL/min/kg | 10 ×10⁻⁶ cm/s | – | 62 nM | – | – | – | < 0.013 nM | 914% | 22% | – | – | – | – | – | –
4 | Cc1c(-c2cc3cc(NC(=O)O[C@H]4COC[C@@H]4C)ncc3c(N)c2F)cnc2c1NCCO2 (single isomer, unassigned) [Compound 441b] | 6.9 mL/min/kg | 15 ×10⁻⁶ cm/s | – | 36 nM | – | 1158% | – | < 0.013 nM | – | – | 30% | – | – | – | – | –
5 | Cc1c(-c2cc3cc(NC(=O)O[C@H]4CCO[C@H]4C)ncc3c(N)c2F)cnc2c1NCCO2 (single isomer, unassigned) [Compound 510c] | 8.7 mL/min/kg | 20 ×10⁻⁶ cm/s | – | – | – | 700% | – | < 0.013 nM | – | – | – | 28% | 62 nM | – | – | –
6 | Cc1c(-c2cc3cc(NC(=O)O[C@@H]4CCC[C@H]4C#N)ncc3c(N)c2F)cnc2c1NCCO2 (single isomer, unassigned) [Compound 482a] | 11 mL/min/kg | 15 ×10⁻⁶ cm/s | – | 38 nM | – | 737% | – | < 0.013 nM | – | – | – | – | – | 41% | – | –
7 | Cc1c(-c2cc3cc(NC(=O)N4CC(C)C4)ncc3c(N)c2F)cnc2c1NCCO2 [Compound 751, N-(8-Amino-7-fluoro-6-(8-methyl-2,3-dihydro-1H-pyrido[2,3-b][1,4]oxazin-7-yl)isoquinolin-3-yl)-3-methylazetidine-1-carboxamide] | < 6.2 mL/min/kg | 11 ×10⁻⁶ cm/s | – | 41 nM | – | 1363% | – | 0.044 nM | – | – | – | – | – | – | 9.4% | –
8 | CNc1cncc(-c2cc3cc(NC(=O)OC4CC(C)(O)C4)ncc3c(N)c2F)c1C (stereo not drawn) [Compound 527, 3-Hydroxy-3-methylcyclobutyl(8-amino-7-fluoro-6-(4-methyl-5-(methylamino)pyridin-3-yl)isoquinolin-3-yl)carbamate] | 11 mL/min/kg | 13 ×10⁻⁶ cm/s | – | – | – | 738% | – | – | – | – | – | 12% | 64 nM | – | – | –
9 | Cc1c(-c2cc3cc(NC(=O)OC4CCOCC4)ncc3c(N)c2F)cnc2c1NCCO2 [Compound 401, Tetrahydropyran-4-yl N-[8-amino-7-fluoro-6-(8-methyl-2,3-dihydro-1H-pyrido[2,3-b][1,4]oxazin-7-yl)-3-isoquinolyl]carbamate] | 9.2 mL/min/kg | 18 ×10⁻⁶ cm/s | – | – | – | – | – | 0.019 nM | – | – | – | – | 97 nM | – | – | 16%
10 | Cc1c(-c2cc3cc(NC(=O)N4CC(C)(F)C4)ncc3c(N)c2F)cnc2c1NCCO2 [Compound 755, N-(8-Amino-7-fluoro-6-(8-methyl-2,3-dihydro-1H-pyrido[2,3-b][1,4]oxazin-7-yl)isoquinolin-3-yl)-3-fluoro-3-methylazetidine-1-carboxamide] | 6.8 mL/min/kg | 10 ×10⁻⁶ cm/s | – | 46 nM | – | 1061% | 4% | 0.09 nM | – | – | – | – | – | – | – | –
